Measurements as given in patent publication US5086071A, “2,5,6,7-tetranor-4,8-inter-m-phenylene PGI2 derivatives” (Toray Industries, Inc., priority 1989, dated 1992).
≈ marks a conversion by molar mass, not a printed value.

Assays:
gastric acid secretion = test: Gastric Acid Secretion Inhibition (pentagastrin-stimulated, perfused stomach); type: in vivo, rat (male SD rats); settings: intravenous; pentagastrin 0.05 μg/Kg/min; relative to PGE2 set as 1
Procedure: Male SD rats were operated by means of ventrotomy under urethane anesthesia. A double cannula was inserted into the fundus of the rat. The stomach lumen was continuously perfused with a physiological saline solution. The perfusate was drawn into the pH meter to continuously measure its pH (M. Ghosh, H. Schild, Br. J. Pharmacol. 13, 54 (1958)).
Pentagastrin was infused continuously at a rate of 0.05 μg/Kg/min. to stimulate gastric acid secretion.
The test compounds were injected intravenuously into the femoral vein when the pH reached a steady state at about 4.0.
Gastric acid secretion inhibition activity is calculated from the area made by pH augmentation against time.
The potency of the compounds is compared and expressed in terms of PGE2 ratio where PGE2 is set as 1.

stomach = test: Gastric Cytoprotection (0.2N NaOH-induced stomach lesion, ulcer index); type: in vivo; settings: test compound 30 minutes before oral 0.2N NaOH; killed one hour later; read-out: ED50 (dose which reduces an ulcer index by 50% of that in a control animal)
Procedure: Gastric cytoprotection was measured according to the method of A. Robert, et al. (Gastroenterlogy 77 (3), 443 (1979).
Thirty minutes later after the test compound was administered, the animals were given orally 0.2N NaOH and killed one hour later by chloroform anesthesia.
The stomach was taken out, fixed with 5% formalin solution, and opened along greater curvature.
The length of the lesion brought about in the stomach is measured and expressed in terms of the ulcer index. Gastric cytoprotection activity is expressed in Table 1 below as an ED50 value (dose in μg/Kg which reduces an ulcer index by 50% of that in a control animal (ulcer index: 100%)).

platelet aggregation = test: Inhibiting Effect of Platelet Aggregation (ADP-induced, human platelet rich plasma); type: cell-based; settings: human PRP, ADP 10 μM, test compound added one minute prior to ADP, read-out: ED50 (text: IC50), inhibition of platelet aggregation
Procedure: Blood collected from human intermediate cubital vein was centrifuged at 800 rpm for 10 minutes. The supernatant was taken out as platelet rich plasma (PRP). Aliquots of PRP were dispensed into test tubes to which […] (ADP) was added (final concentration: 10 μM) to induce platelet aggregation. The extent of platelet aggregation is determined by an aggregometer (Rika Denki, Tokyo) as a change of turbidity. The test compound is added in one minute prior to the addition pf ADP. IC50 values are calculated as a concentration of test compound which inhibits platelet aggregation by 50%.

[1] = neutral aqueous solution; cited from earlier work
[2] = cited from earlier work

| SMILES | IC50 (platelet aggregation) [ng/mL] | Gastric Antisecretory Activity, Relative Potency Ratio [PGE2 = 1.0] (gastric acid secretion) | ED50 (stomach) [µg/kg] | stability [1] | duration of physiological activities in vivo [2] | metabolism in vivo [2] |
| --- | --- | --- | --- | --- | --- | --- |
| O=C(O)/C=C/c1cccc2c1O[C@H]1C[C@@H](O)[C@H](/C=C/[C@@H](O)c3ccccc3)[C@@H]21 [Compound 37, d-(3E)-15-phenyl-2,5,6,7,16,17,18,19,20-nonanor-3,4-didehydro-4,8-inter-m-phenylene PGI2] | 0.56 (≈ 1.48 nM) | 83 | 0.83 |  |  |  |
| O=C(O)/C=C/c1cccc2c1O[C@H]1C[C@@H](O)[C@H](/C=C/[C@@H](O)c3ccc(Cl)cc3)[C@@H]21 [Compound 40, d-(3E)-15-(p-chlorophenyl)-2,5,6,7,16,17,18,19,20-nonanor-3,4-didehydro-4,8-inter-m-phenylene PGI2] |  |  | 0.46 |  |  |  |
| O=C(O)/C=C/c1cccc2c1O[C@H]1C[C@@H](O)[C@H](/C=C/[C@@H](O)c3cccc(F)c3)[C@@H]21 [Compound 43, d-(3E)-15-(m-fluorophenyl)-2,5,6,7,16,17,18,19,20-nonanor-3,4-didehydro-4,8-inter-m-phenylene PGI2] |  |  | 0.39 |  |  |  |
| CC(C)(c1ccccc1)[C@H](O)/C=C/[C@@H]1[C@H]2c3cccc(/C=C/C(=O)O)c3O[C@H]2C[C@H]1O [Compound 51, d-(3E)-16-methyl-16-phenyl-2,5,6,7,18,19,20-heptanor-3,4-didehydro-4,8-inter-m-phenylene PGI2] | 1800 (≈ 4280 nM) |  |  |  |  |  |
| O=C(O)/C=C/c1cccc2c1O[C@H]1C[C@@H](O)[C@H](/C=C/[C@@H](O)C3CCCC3)[C@@H]21 [Compound 57, d-(3E)-15-cyclopentyl-2,5,6,7,16,17,18,19,20-nonanor-3,4-didehydro-4,8-inter-m-phenylene PGI2] |  |  | 5.07 |  |  |  |
| O=C(O)/C=C/c1cccc2c1O[C@H]1C[C@@H](O)[C@H](/C=C/[C@@H](O)C3CCCCC3)[C@@H]21 [Compound 60, d-(3E)-15-cyclohexyl-2,5,6,7,16,17,18,19,20-nonanor-3,4-didehydro-4,8-inter-m-phenylene PGI2] | 0.35 (≈ 0.91 nM) | 14 | 0.88 |  |  |  |
| C[C@@H](Oc1ccccc1)[C@H](O)/C=C/[C@@H]1[C@H]2c3cccc(/C=C/C(=O)O)c3O[C@H]2C[C@H]1O [Compound 77, d-(3E,16R)-16-phenoxy-2,5,6,7,18,19,20-heptanor-3,4-didehydro-4,8-inter-m-phenylene PGI2] | 14 (≈ 33.1 nM) | 83 | 0.4 |  |  |  |
| CC(C)(Oc1ccccc1)[C@H](O)/C=C/[C@@H]1[C@H]2c3cccc(/C=C/C(=O)O)c3O[C@H]2C[C@H]1O [Compound 79, d-(3E)-16-methyl-16-phenoxy-2,5,6,7,18,19,20-heptanor-3,4-didehydro-4,8-inter-m-phenylene PGI2] |  | 112 | 0.5 |  |  |  |
| CCCCC[C@H](O)/C=C/[C@@H]1[C@H]2C/C(=C/CCCC(=O)O)O[C@H]2C[C@H]1O [PGI2, Prostaglandin I2] |  |  |  | extremely unstable even in neutral aqueous solution | only short duration of physiological activities in vivo | metabolized quickly in vivo |

More lines, main results first:

| IC50 (platelet aggregation) [ng/mL] | SMILES | Gastric Antisecretory Activity, Relative Potency Ratio [PGE2 = 1.0] (gastric acid secretion) | ED50 (stomach) [µg/kg] | stability [1] | duration of physiological activities in vivo [2] | metabolism in vivo [2] |
| --- | --- | --- | --- | --- | --- | --- |
| 0.4 (≈ 1.07 nM) | CCCCC[C@H](O)/C=C/[C@@H]1[C@H]2c3cccc(/C=C/C(=O)O)c3O[C@H]2C[C@H]1O [Compound 24, d-(3E)-2,5,6,7-tetranor-3,4-didehydro-4,8-inter-m-phenylene PGI2] | 23 | 21.4 |  |  |  |
| 1.6 (≈ 4.14 nM) | CCCCC(C)[C@H](O)/C=C/[C@@H]1[C@H]2c3cccc(/C=C/C(=O)O)c3O[C@H]2C[C@H]1O (stereo partly drawn) [Compound 28, d-(3E)-16-methyl-2,5,6,7-tetranor-3,4-didehydro-4,8-inter-m-phenylene PGI2] | 55 | 0.26 |  |  |  |
| 0.14 (≈ 0.35 nM) | CCCC[C@H](C)C[C@H](O)/C=C/[C@@H]1[C@H]2c3cccc(/C=C/C(=O)O)c3O[C@H]2C[C@H]1O [Compound 31, d-(3E, 17S)-17-methyl-20a-homo-2,5,6,7-tetranor-3,4-didehydro-4,8-inter-m-phenylene PGI2] |  |  |  |  |  |
| 45 (≈ 112 nM) | CCCCC(C)(C)[C@H](O)/C=C/[C@@H]1[C@H]2c3cccc(/C=C/C(=O)O)c3O[C@H]2C[C@H]1O [Compound 34, d-(3E)-16,16-dimethyl-2,5,6,7-tetranor-3,4-didehydro-4,8-inter-m-phenylene PGI2] | 36 | 1.6 |  |  |  |
| 0.58 (≈ 1.55 nM) | CCCOC[C@H](O)/C=C/[C@@H]1[C@H]2c3cccc(/C=C/C(=O)O)c3O[C@H]2C[C@H]1O [Compound 69, d-(3E)-2,5,6,7-tetranor-17-oxa-3,4-didehydro-4,8-inter-m-phenylene PGI2] | 10 | 6.5 |  |  |  |
| 100 (≈ 248 nM) | CCOCC(C)(C)[C@H](O)/C=C/[C@@H]1[C@H]2c3cccc(/C=C/C(=O)O)c3O[C@H]2C[C@H]1O [Compound 72, d-(3E)-16,16-dimethyl-2,5,6,7-tetranor-18-oxa-3,4-didehydro-4,8-inter-m-phenylene PGI2] | 9 | 2.7 |  |  |  |
| 29 (≈ 71 nM) | O=C(O)/C=C/c1cccc2c1O[C@H]1C[C@@H](O)[C@H](/C=C/[C@@H](O)COc3ccccc3)[C@@H]21 [Compound 75, d-(3E)-16-phenoxy-2,5,6,7,17,18,19,20-octanor-3,4-didehydro-4,8-inter-m-phenylene PGI2] | 73 | 0.89 |  |  |  |
